Legend:
[1] = Metabolic stability in rat liver microsomes assessed as parent compound remaining at 1 uM after 30 mins by LC-ESI-TOF/MS method; format: ADME, microsome; conditions: read-out: Stability
[2] = target: Serine/threonine-protein kinase 17B (Homo sapiens) (UniProt O94768); assay: Inhibition of DRAK2 (unknown origin) at 1 uM relative to control
in vitro = conditions: human, Caco-2
[3] = target: Dual specificity protein kinase CLK4 (Homo sapiens, UniProt Q9HAZ1); assay: Inhibition of CLK4 (unknown origin) at 1 uM relative to control
[4] = target: T1, Serine/threonine-protein kinase BRSK1 (Homo sapiens) (UniProt Q8TDC3); assay: Inhibition of BRSK1 (unknown origin) at 1 uM relative to control
T1 sequence (whole entry): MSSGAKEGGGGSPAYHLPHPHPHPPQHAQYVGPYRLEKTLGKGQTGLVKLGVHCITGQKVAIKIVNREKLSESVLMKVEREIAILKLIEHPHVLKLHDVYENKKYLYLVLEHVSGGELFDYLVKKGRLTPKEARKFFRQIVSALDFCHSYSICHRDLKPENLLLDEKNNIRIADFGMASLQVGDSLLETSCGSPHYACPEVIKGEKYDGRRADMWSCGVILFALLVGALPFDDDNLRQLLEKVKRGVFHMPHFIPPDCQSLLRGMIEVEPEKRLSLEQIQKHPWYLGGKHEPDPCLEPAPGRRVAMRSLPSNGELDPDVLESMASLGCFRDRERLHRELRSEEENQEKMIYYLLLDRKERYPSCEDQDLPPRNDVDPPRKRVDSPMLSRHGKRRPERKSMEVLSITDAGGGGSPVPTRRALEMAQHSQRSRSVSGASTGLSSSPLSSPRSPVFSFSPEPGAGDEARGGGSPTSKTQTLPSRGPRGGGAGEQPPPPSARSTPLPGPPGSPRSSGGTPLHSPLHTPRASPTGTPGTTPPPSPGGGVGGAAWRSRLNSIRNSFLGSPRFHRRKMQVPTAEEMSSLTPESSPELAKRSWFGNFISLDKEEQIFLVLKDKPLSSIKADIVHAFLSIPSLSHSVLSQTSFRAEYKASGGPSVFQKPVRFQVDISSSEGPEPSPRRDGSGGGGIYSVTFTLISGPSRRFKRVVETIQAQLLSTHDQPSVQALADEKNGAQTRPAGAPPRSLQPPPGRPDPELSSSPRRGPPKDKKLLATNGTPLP

[5] = Metabolic stability in human liver microsomes assessed as parent compound remaining at 1 uM after 30 mins by LC-ESI-TOF/MS method; format: ADME, microsome; conditions: read-out: Stability
[6] = target: T2, Serine/threonine-protein kinase 17A (Homo sapiens) (UniProt Q9UEE5); assay: Inhibition of DRAK1 (unknown origin) at 1 uM relative to control
T2 sequence (whole entry): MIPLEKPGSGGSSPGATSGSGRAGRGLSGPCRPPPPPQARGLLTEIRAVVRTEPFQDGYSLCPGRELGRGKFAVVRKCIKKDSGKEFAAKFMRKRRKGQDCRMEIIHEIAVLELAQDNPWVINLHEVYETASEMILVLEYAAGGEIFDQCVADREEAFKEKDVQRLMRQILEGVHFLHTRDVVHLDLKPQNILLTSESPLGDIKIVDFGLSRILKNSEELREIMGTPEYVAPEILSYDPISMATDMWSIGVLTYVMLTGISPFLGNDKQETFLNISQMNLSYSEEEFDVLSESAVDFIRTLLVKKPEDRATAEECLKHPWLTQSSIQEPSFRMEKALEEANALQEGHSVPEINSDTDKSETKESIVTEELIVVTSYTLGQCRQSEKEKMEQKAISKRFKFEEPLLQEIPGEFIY

[7] = target: Vascular endothelial growth factor receptor 2 (Homo sapiens) (UniProt P35968); assay: Inhibition of KDR (unknown origin) at 1 uM relative to control
[8] = Oral bioavailability in Balb/c mouse at 10 mg/kg by LC-ESI-TOF/MS or LC-ESI-MS/MS method; format: ADME, organism-based; conditions: in vivo
[9] = target: Receptor-interacting serine/threonine-protein kinase 2 (Homo sapiens) (UniProt O43353); assay: Inhibition of RIPK2 (unknown origin) at 1 uM relative to control
[10] = target: TGF-beta receptor type-2 (Homo sapiens) (UniProt P37173); assay: Inhibition of TGFBR2 (unknown origin) at 1 uM relative to control
[11] = Oral bioavailability in Sprague-Dawley rat at 10 mg/kg by LC-ESI-TOF/MS or LC-ESI-MS/MS method; format: ADME, organism-based; conditions: in vivo
[12] = Oral bioavailability in cynomolgus monkey at 5 mg/kg by LC-ESI-TOF/MS or LC-ESI-MS/MS method; format: ADME, organism-based, Macaca fascicularis; conditions: in vivo
[13] = target: Dual specificity tyrosine-phosphorylation-regulated kinase 3 (Homo sapiens) (UniProt O43781); assay: Inhibition of DYRK3 (unknown origin) at 1 uM relative to control
[14] = Oral bioavailability in Beagle dog at 5 mg/kg by LC-ESI-TOF/MS or LC-ESI-MS/MS method; format: ADME, organism-based, Canis lupus familiaris; conditions: in vivo
[15] = target: Proto-oncogene tyrosine-protein kinase receptor Ret (Homo sapiens) (UniProt P07949); assay: Inhibition of RET (unknown origin) at 1 uM relative to control
physchem = conditions: octanol/water
[16] = Metabolic stability in mouse liver microsomes assessed as parent compound remaining at 1 uM after 30 mins by LC-ESI-TOF/MS method; format: ADME, microsome; conditions: read-out: Stability
[17] = target: Leucine-rich repeat serine/threonine-protein kinase 2 (Homo sapiens) (UniProt Q5S007); assay: Inhibition of LRRK2 (unknown origin) at 1 uM relative to control
[18] = target: Receptor-type tyrosine-protein kinase FLT3 (Homo sapiens) (UniProt P36888); assay: Inhibition of FLT3 (unknown origin) at 1 uM relative to control
[19] = target: Ribosomal protein S6 kinase alpha-6 (Homo sapiens) (UniProt Q9UK32); assay: Inhibition of RSK4 (unknown origin) at 1 uM relative to control
[20] = target: Vascular endothelial growth factor receptor 3 (Homo sapiens) (UniProt P35916); assay: Inhibition of FLT4 (unknown origin) at 1 uM relative to control
[21] = target: Dual specificity tyrosine-phosphorylation-regulated kinase 2 (Homo sapiens) (UniProt Q92630); assay: Inhibition of DYRK2 (unknown origin) at 1 uM relative to control
[22] = target: MAP kinase-interacting serine/threonine-protein kinase 1 (Homo sapiens, UniProt Q9BUB5)
[23] = Oral bioavailability in Beagle dog at 3 mg/kg by LC-ESI-TOF/MS or LC-ESI-MS/MS method; format: ADME, organism-based, Canis lupus familiaris; conditions: in vivo
[24] = Oral bioavailability in cynomolgus monkey at 3 mg/kg by LC-ESI-TOF/MS or LC-ESI-MS/MS method; format: ADME, organism-based, Macaca fascicularis; conditions: in vivo
[25] = target: Tyrosine-protein kinase Fgr (Homo sapiens) (UniProt P09769); assay: Inhibition of FGR (unknown origin) at 1 uM relative to control
[26] = target: MAP kinase-activated protein kinase 3 (Homo sapiens) (UniProt Q16644); assay: Inhibition of MAPKAPK3 (unknown origin) at 1 uM relative to control
[27] = target: Platelet-derived growth factor receptor alpha (Homo sapiens) (UniProt P16234); assay: Inhibition of PDGFRA (unknown origin) at 1 uM relative to control

Vascular endothelial growth factor receptor 2 (Homo sapiens), sequence (P35968 whole entry): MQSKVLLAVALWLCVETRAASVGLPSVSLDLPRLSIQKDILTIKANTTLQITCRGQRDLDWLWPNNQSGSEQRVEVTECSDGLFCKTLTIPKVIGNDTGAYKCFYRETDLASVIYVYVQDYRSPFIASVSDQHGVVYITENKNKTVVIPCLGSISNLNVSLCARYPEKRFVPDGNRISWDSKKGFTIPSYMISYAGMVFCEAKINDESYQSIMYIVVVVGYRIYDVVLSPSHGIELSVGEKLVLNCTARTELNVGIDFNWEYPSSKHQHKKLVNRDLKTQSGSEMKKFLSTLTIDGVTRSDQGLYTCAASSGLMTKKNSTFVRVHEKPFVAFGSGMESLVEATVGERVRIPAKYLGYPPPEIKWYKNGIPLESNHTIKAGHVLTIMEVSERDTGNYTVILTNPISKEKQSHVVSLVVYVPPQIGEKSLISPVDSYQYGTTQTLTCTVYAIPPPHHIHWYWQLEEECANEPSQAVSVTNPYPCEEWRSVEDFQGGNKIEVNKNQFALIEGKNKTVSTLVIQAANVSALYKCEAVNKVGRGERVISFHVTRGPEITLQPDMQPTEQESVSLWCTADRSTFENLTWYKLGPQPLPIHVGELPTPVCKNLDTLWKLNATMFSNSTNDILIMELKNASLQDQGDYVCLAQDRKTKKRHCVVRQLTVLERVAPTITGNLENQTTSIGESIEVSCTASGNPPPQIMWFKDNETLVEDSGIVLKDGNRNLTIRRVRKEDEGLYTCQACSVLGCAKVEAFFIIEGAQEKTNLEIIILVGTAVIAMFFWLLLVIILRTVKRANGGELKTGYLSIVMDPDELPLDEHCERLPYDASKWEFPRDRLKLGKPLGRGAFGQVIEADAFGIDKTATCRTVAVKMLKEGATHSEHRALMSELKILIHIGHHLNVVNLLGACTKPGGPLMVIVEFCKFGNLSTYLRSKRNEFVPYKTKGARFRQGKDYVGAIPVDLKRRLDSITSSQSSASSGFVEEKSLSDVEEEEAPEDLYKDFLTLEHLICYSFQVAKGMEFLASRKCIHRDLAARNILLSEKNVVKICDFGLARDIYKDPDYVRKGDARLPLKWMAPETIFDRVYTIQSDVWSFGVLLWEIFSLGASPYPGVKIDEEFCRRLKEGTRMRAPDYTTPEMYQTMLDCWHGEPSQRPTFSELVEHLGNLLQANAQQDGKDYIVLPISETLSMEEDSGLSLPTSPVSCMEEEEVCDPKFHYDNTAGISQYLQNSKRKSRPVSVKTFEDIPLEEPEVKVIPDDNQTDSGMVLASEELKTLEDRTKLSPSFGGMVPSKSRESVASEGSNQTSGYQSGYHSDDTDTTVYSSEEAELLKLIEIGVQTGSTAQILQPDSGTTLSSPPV
Dual specificity tyrosine-phosphorylation-regulated kinase 3 (Homo sapiens), sequence (O43781 whole entry): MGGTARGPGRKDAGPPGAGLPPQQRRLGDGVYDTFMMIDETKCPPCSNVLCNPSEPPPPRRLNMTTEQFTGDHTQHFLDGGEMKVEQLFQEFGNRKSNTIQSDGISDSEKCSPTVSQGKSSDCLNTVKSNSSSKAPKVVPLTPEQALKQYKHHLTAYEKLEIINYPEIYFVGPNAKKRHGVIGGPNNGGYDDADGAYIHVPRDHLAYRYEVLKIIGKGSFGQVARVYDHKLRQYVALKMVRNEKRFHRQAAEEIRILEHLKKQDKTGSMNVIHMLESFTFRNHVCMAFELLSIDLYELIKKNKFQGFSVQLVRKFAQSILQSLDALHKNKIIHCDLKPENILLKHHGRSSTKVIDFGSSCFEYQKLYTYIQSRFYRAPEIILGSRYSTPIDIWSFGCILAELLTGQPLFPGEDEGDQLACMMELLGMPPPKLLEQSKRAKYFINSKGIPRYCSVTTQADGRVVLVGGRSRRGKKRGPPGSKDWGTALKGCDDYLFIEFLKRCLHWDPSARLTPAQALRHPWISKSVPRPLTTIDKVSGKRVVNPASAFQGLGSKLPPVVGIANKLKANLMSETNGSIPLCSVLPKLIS
Leucine-rich repeat serine/threonine-protein kinase 2 (Homo sapiens), sequence (Q5S007 whole entry): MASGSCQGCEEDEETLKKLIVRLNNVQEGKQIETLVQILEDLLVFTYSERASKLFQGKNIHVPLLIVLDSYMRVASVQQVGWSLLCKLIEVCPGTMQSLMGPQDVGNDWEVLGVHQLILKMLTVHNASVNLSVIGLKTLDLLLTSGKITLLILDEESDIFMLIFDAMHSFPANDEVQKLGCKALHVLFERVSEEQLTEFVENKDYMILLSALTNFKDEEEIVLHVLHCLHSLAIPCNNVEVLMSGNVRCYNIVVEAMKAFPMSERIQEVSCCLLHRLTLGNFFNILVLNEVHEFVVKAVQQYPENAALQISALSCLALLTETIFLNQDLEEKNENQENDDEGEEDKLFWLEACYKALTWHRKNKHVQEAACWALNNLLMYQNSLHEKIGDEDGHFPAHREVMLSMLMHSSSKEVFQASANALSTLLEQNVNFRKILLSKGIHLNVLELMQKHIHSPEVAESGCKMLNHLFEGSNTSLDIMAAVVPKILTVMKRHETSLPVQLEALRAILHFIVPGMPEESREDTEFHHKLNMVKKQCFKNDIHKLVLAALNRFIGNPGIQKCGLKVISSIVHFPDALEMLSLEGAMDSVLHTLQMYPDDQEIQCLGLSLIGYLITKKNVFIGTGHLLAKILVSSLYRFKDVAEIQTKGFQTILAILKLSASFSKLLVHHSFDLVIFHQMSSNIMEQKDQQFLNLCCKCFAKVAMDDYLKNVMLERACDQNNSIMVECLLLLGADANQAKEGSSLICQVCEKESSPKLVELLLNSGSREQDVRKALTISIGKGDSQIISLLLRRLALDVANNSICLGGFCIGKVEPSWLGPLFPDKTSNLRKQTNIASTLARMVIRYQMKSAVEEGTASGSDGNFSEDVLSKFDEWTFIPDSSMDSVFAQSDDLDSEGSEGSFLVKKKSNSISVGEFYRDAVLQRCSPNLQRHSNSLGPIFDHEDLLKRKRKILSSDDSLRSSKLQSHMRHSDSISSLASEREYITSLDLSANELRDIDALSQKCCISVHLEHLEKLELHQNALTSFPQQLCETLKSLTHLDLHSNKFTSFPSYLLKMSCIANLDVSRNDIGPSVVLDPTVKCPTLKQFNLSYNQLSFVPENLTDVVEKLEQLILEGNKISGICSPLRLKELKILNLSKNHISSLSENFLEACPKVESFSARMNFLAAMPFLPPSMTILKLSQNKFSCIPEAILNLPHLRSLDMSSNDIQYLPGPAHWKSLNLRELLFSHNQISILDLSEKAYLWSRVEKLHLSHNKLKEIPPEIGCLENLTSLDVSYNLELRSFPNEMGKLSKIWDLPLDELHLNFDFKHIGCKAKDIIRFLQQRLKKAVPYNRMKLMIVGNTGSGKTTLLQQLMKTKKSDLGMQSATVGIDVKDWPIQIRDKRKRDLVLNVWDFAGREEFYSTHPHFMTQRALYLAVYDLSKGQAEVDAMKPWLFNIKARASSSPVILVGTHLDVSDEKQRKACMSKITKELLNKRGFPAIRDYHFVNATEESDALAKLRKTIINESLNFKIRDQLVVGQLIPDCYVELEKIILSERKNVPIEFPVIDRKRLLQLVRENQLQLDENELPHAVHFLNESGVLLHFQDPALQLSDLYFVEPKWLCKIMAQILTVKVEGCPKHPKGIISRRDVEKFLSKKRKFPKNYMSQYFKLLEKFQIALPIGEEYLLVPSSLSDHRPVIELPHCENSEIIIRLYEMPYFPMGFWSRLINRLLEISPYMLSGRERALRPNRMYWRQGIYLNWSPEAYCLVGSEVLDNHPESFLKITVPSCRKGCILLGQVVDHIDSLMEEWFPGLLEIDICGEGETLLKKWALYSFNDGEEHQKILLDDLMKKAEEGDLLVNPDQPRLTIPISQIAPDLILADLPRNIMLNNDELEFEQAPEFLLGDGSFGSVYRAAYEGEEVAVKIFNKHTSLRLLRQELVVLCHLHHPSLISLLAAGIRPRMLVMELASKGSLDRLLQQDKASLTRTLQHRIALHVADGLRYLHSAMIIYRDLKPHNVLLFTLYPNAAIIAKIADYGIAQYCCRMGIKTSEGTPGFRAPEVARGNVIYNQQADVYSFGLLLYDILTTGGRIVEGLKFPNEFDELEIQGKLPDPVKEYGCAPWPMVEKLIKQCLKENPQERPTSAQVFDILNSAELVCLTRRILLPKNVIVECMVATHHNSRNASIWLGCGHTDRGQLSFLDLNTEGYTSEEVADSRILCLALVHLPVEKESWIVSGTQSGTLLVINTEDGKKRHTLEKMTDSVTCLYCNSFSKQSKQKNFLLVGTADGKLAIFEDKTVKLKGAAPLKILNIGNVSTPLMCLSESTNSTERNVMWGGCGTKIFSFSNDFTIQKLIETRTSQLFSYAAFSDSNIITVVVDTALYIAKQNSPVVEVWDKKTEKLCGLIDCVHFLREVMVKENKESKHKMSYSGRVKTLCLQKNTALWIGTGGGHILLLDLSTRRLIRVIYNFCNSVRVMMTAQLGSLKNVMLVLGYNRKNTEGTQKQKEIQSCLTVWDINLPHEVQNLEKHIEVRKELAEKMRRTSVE
Dual specificity protein kinase CLK4, sequence (Q9HAZ1 whole entry, looked up): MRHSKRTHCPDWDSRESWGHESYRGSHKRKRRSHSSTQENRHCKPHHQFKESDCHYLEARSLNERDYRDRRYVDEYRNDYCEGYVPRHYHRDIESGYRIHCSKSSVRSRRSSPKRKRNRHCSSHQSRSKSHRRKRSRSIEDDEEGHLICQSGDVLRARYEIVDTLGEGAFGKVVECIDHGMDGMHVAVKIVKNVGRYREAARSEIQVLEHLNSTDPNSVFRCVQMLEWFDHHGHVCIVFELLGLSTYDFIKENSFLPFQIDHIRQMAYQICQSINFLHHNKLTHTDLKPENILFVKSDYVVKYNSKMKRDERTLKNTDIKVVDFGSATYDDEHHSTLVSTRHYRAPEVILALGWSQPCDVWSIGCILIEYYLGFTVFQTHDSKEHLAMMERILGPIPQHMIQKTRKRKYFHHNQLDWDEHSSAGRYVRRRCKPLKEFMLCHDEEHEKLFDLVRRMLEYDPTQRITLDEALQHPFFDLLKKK

remaining at 0.5 h, 1 µM [1]	inhibition [2]	Papp A→B at 2 h, 5 µM (in vitro)	inhibition [3]	inhibition [4]	remaining at 0.5 h, 1 µM [5]	inhibition [6]	inhibition [7]	bioavailability [8]	inhibition [10]	bioavailability [11]	inhibition [13]	inhibition [15]	logP (physchem)	remaining at 0.5 h, 1 µM [16]	inhibition [17]	SMILES	also measured
69%	82%	4.2 ×10⁻⁶ cm/s	75%	55%	89%	96%	71%	58%	57%	28%	56%	55%	3.2	73%	59%	Nc1cc(Nc2cc(Cl)c3n(c2=O)C2(CCCCC2)NC3=O)ncn1	inhibition [9]: 59%; bioavailability [12]: 50%; bioavailability [14]: > 100%
73%	82%	1.2 ×10⁻⁶ cm/s	75%	58%	85%	95%	96%	80%	74%	69%	67%	87%	2.4	71%	52%	Nc1cc(Nc2cc(Cl)c3n(c2=O)C2(CCCC2)NC3=O)ncn1	inhibition [18]: 55%; inhibition [19]: 58%; inhibition [20]: 89%; inhibition [21]: 81%; IC50 [22]: 880 pM; bioavailability [23]: > 100%; bioavailability [24]: 51%; inhibition [25]: 60%; inhibition [26]: 54%; inhibition [27]: 55%

From ChEMBL document CHEMBL4043290, “Structure-based Design of Pyridone-Aminal eFT508 Targeting Dysregulated Translation by Selective Mitogen-activated Protein Kinase Interacting Kinases 1 and 2 (MNK1/2) Inhibition” (J Med Chem, 2018)
